From ChEMBL document CHEMBL3813616, “Discovery of novel 7-azaindoles as PDK1 inhibitors” (Bioorg Med Chem Lett, 2016) come the findings set out here.

Broadly, the inhibition is the percentage by which the read-out fell short of the control. The IC50 is the midpoint of a concentration-inhibition curve. Usually solubility stands for how much of the substance goes into solution per volume.

The nature of data set [1]: Efflux ratio of permeability from basolateral to apical over apical to basolateral side in human Caco2 cells. The note with it: Caco-2. The format is ADME, cell-based. (In general: Caco-2 monolayers are a common model of the intestinal barrier.)
The species entered for the next data set is Homo sapiens. Put plainly: Selectivity ratio of IC50 for PI3K alpha (unknown origin) to IC50 for human His6-tagged PDK1.
Data set [2] addresses Phosphatidylinositol 4,5-bisphosphate 3-kinase catalytic subunit alpha isoform (Homo sapiens, UniProt P42336). Nature of the data set: Inhibition of PI3K alpha (unknown origin) at 10 uM.
In data set [3] the target is Interleukin-1 receptor-associated kinase 1 (Homo sapiens) (UniProt P51617). Put plainly: Inhibition of human IRAK1 (1 to 712 residues) assessed as enzyme activity at 1 uM using 33P ATP by radioactive filter binding assay. The arrangement: scale not given: the % may be the effect or the level left.
The target of data set [4] is Interleukin-1 receptor-associated kinase 4 (Homo sapiens) (UniProt Q9NWZ3). Put plainly: Inhibition of human IRAK4 (14 to 460 residues) assessed as enzyme activity at 1 uM using 33P ATP by radioactive filter binding assay. Details: scale not given: the % may be the effect or the level left.
The target in data set [5] is Serine/threonine-protein kinase STK11 (Homo sapiens) (UniProt Q15831). Put plainly: Inhibition of human LKB1 (1 to 433 residues) assessed as enzyme activity at 1 uM using 33P ATP by radioactive filter binding assay. Details: scale not given: the % may be the effect or the level left.
Data set [6] has as its target Serine/threonine-protein kinase MARK2 (Homo sapiens) (UniProt Q7KZI7). Put plainly: Inhibition of human MARK2 (2 to 691 residues) assessed as enzyme activity at 1 uM using 33P ATP by radioactive filter binding assay. The arrangement: scale not given: the % may be the effect or the level left.
For data set [7], the target named is Misshapen-like kinase 1 (Homo sapiens) (UniProt Q8N4C8). Put plainly: Inhibition of human MINK1 (1 to 320 residues) assessed as enzyme activity at 1 uM using 33P ATP by radioactive filter binding assay. Details: scale not given: the % may be the effect or the level left.
Data set [8] concerns the target Dual specificity mitogen-activated protein kinase kinase 6 (Homo sapiens) (UniProt P52564). Put plainly: Inhibition of human MKK6 (2 to 334 residues) assessed as enzyme activity at 1 uM using 33P ATP by radioactive filter binding assay. The arrangement: scale not given: the % may be the effect or the level left.
The target of data set [9] is Serine/threonine-protein kinase 16 (Homo sapiens) (UniProt O75716). Put plainly: Inhibition of human MPSK1 (1 to 305 residues) assessed as enzyme activity at 1 uM using 33P ATP by radioactive filter binding assay. The arrangement: scale not given: the % may be the effect or the level left.
Data set [10] deals with NUAK family SNF1-like kinase 1 (Homo sapiens) (UniProt O60285). Nature of the data set: Inhibition of human NUAK1 (2 to 660 residues) assessed as enzyme activity at 1 uM using 33P ATP by radioactive filter binding assay. The arrangement: scale not given: the % may be the effect or the level left.
The target in data set [11] is Protein kinase C gamma type (Homo sapiens) (UniProt P05129). Nature of the data set: Inhibition of human PKCgamma (1 to 697 residues) assessed as enzyme activity at 1 uM using 33P ATP by radioactive filter binding assay. The arrangement: scale not given: the % may be the effect or the level left.
Data set [12] deals with Receptor-interacting serine/threonine-protein kinase 2 (Homo sapiens) (UniProt O43353). Nature of the data set: Inhibition of human RIPK2 (2 to 311 residues) assessed as enzyme activity at 1 uM using 33P ATP by radioactive filter binding assay. The arrangement: scale not given: the % may be the effect or the level left.
In data set [13] the target is Serine/threonine-protein kinase 33 (Homo sapiens) (UniProt Q9BYT3). Nature of the data set: Inhibition of human STK33 (1 to 514 residues) assessed as enzyme activity at 1 uM using 33P ATP by radioactive filter binding assay. Details: scale not given: the % may be the effect or the level left.
In data set [14] the target is Dual specificity protein kinase TTK (Homo sapiens) (UniProt P33981). Put plainly: Inhibition of human TTK (1 to 857 residues) assessed as enzyme activity at 1 uM using 33P ATP by radioactive filter binding assay. The arrangement: scale not given: the % may be the effect or the level left.
Data set [15] addresses T1, 3-phosphoinositide-dependent protein kinase 1 (Homo sapiens, UniProt O15530).
T1 sequence (O15530 whole entry): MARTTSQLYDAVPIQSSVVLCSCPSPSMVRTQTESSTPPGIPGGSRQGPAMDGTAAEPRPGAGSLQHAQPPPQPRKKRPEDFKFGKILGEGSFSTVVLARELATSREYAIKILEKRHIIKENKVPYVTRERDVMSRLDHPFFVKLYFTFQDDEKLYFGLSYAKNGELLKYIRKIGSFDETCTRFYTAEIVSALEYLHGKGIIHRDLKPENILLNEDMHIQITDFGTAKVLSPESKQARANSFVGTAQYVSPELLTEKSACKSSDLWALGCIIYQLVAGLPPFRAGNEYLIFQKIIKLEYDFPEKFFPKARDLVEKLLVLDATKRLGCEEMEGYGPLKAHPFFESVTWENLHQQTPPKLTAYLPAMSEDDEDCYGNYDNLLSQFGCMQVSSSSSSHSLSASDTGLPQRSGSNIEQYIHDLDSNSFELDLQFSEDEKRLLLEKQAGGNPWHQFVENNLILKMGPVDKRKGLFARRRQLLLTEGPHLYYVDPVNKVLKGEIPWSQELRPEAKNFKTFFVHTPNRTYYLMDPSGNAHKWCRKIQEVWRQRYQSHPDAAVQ
Put plainly: Inhibition of human PDK1.

Data set [16] addresses Tyrosine-protein kinase ABL1 (Homo sapiens) (UniProt P00519). Nature of the data set: Inhibition of human ABL (118 to 535 residues) assessed as enzyme activity at 1 uM using 33P ATP by radioactive filter binding assay. The arrangement: scale not given: the % may be the effect or the level left.
Data set [17] concerns the target Mitogen-activated protein kinase kinase kinase 5 (Homo sapiens) (UniProt Q99683). Put plainly: Inhibition of human ASK1 (670 to 950 residues) assessed as enzyme activity at 1 uM using 33P ATP by radioactive filter binding assay. Details: scale not given: the % may be the effect or the level left.
For data set [18], the target named is Aurora kinase A (Homo sapiens) (UniProt O14965). Nature of the data set: Inhibition of human Aurora A (2 to 403 residues) assessed as enzyme activity at 1 uM using 33P ATP by radioactive filter binding assay. Details: scale not given: the % may be the effect or the level left.
Data set [19] addresses Calcium/calmodulin-dependent protein kinase kinase 1 (Homo sapiens) (UniProt Q8N5S9). Nature of the data set: Inhibition of CAMKK1 (unknown origin) assessed as enzyme activity at 1 uM using 33P ATP by radioactive filter binding assay. Details: scale not given: the % may be the effect or the level left.
The target in data set [20] is Death-associated protein kinase 1 (Homo sapiens) (UniProt P53355). Nature of the data set: Inhibition of human DAPK1 (1 to 363 residues) assessed as enzyme activity at 1 uM using 33P ATP by radioactive filter binding assay. The arrangement: scale not given: the % may be the effect or the level left.
Data set [21] deals with Eukaryotic translation initiation factor 2-alpha kinase 3 (Homo sapiens) (UniProt Q9NZJ5). Put plainly: Inhibition of human EIF2AK3 (536 to 1116 residues) assessed as enzyme activity at 1 uM using 33P ATP by radioactive filter binding assay. The arrangement: scale not given: the % may be the effect or the level left.
Data set [22] deals with Ephrin type-B receptor 1 (Homo sapiens) (UniProt P54762). Put plainly: Inhibition of human EPHB1 (565 to 984 residues) assessed as enzyme activity at 1 uM using 33P ATP by radioactive filter binding assay. Details: scale not given: the % may be the effect or the level left.
Data set [23] deals with Ephrin type-A receptor 4 (Homo sapiens) (UniProt P54764). Put plainly: Inhibition of human EPHA4 (570 to 986 residues) assessed as enzyme activity at 1 uM using 33P ATP by radioactive filter binding assay. Details: scale not given: the % may be the effect or the level left.
The target in data set [24] is Mitogen-activated protein kinase kinase kinase kinase 2 (Homo sapiens) (UniProt Q12851). Put plainly: Inhibition of human GCK (2 to 812 residues) assessed as enzyme activity at 1 uM using 33P ATP by radioactive filter binding assay. Details: scale not given: the % may be the effect or the level left.
A short description of data set [25]: Solubility of the compound. Format: physicochemical.

Misshapen-like kinase 1 (Homo sapiens), sequence (Q8N4C8 whole entry, looked up, the tested form may be a part): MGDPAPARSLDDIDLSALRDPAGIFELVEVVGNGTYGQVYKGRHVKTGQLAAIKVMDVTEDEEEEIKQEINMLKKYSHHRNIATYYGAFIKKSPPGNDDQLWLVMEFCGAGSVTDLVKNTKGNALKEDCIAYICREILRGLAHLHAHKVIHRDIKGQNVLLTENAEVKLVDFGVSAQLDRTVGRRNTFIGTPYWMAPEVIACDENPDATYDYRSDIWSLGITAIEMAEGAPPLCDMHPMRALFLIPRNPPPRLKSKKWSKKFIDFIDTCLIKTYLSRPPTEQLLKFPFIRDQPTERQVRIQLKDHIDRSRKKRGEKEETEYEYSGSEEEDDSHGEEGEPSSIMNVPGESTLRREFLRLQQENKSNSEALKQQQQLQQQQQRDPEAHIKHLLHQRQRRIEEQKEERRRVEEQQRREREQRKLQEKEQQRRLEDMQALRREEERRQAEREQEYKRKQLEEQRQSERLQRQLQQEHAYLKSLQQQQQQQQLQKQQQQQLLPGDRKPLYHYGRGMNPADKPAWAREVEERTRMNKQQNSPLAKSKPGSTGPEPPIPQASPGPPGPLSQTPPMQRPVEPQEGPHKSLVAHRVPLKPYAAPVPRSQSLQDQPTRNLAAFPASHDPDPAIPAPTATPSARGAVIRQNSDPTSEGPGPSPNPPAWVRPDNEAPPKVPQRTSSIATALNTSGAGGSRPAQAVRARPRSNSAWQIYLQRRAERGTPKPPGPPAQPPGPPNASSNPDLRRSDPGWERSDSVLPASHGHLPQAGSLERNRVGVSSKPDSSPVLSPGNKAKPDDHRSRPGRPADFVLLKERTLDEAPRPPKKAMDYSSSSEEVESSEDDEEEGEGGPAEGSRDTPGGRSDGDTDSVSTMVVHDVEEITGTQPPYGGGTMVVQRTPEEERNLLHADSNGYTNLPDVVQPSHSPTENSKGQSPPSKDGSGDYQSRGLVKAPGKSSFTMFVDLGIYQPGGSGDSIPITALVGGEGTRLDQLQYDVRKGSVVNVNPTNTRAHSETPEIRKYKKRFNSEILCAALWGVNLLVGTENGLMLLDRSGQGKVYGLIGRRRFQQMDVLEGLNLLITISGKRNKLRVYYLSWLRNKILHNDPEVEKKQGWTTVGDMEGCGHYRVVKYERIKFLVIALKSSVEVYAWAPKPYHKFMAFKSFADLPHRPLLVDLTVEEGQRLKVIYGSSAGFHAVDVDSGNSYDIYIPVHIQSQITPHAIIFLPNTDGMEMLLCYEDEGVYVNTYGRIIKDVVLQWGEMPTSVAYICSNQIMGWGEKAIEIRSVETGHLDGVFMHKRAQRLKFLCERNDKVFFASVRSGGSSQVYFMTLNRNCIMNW
Serine/threonine-protein kinase 33 (Homo sapiens), sequence (Q9BYT3 whole entry, looked up, the tested form may be a part): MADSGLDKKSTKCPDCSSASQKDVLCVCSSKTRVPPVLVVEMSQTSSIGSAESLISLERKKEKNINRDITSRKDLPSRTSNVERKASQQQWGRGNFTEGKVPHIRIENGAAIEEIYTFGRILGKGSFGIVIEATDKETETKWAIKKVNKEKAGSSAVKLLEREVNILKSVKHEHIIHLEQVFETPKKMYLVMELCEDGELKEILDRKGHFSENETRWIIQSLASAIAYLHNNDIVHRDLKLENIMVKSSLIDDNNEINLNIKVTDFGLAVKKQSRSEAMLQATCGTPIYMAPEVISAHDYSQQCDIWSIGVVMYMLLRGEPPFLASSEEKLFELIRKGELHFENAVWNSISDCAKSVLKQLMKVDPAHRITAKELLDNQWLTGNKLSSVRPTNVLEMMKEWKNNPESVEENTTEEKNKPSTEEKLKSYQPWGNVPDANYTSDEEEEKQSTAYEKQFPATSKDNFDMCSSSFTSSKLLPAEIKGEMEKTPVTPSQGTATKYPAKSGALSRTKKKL
Mitogen-activated protein kinase kinase kinase kinase 2 (Homo sapiens), sequence (Q12851 whole entry, the tested form may be a part): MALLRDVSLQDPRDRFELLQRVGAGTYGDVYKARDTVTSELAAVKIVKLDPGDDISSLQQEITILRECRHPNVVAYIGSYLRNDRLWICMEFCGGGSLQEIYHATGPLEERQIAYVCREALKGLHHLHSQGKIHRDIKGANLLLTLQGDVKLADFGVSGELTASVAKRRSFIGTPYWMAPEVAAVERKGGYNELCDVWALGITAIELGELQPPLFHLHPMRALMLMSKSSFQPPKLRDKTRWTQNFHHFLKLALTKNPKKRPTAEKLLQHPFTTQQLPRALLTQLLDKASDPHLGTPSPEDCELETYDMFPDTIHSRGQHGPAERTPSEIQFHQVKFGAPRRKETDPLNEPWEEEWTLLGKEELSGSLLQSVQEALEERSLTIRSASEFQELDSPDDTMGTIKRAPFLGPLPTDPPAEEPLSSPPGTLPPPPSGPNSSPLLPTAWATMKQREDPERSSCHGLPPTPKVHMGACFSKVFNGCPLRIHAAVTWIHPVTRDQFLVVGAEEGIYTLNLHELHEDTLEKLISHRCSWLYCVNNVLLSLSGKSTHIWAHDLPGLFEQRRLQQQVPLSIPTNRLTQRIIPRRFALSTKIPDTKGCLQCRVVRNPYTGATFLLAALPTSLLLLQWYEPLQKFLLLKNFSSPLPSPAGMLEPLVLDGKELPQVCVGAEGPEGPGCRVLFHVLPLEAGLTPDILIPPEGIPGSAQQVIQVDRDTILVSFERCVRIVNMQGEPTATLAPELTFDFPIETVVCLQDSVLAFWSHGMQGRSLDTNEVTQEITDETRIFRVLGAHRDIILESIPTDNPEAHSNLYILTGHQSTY
Ephrin type-A receptor 4 (Homo sapiens), sequence (P54764 whole entry, the tested form may be a part): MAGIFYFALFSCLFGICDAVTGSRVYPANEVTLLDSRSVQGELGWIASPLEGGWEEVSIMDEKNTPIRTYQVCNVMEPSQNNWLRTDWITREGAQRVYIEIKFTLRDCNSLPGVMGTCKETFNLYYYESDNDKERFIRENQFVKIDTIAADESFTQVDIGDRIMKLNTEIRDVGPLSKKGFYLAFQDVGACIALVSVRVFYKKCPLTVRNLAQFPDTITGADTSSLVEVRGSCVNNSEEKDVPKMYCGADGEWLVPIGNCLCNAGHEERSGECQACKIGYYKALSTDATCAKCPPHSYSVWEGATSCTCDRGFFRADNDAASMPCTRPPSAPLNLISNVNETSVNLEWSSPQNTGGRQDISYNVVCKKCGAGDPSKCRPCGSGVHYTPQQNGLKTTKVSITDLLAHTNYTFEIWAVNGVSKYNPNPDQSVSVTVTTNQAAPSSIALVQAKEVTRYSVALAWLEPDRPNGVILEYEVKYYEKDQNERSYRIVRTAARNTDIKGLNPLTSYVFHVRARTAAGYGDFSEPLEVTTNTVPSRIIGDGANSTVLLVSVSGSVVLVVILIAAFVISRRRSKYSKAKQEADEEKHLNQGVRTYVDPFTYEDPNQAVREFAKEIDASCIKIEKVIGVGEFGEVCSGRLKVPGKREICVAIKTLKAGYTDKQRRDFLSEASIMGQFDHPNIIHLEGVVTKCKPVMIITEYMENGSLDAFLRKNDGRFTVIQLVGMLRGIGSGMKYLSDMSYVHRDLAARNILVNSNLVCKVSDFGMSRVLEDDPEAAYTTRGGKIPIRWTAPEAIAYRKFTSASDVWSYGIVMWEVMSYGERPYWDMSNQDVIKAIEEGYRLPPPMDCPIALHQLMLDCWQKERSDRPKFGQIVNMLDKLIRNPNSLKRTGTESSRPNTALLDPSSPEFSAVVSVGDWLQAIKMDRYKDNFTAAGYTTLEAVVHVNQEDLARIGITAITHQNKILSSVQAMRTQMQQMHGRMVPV
Death-associated protein kinase 1 (Homo sapiens), sequence (P53355 whole entry, looked up, the tested form may be a part): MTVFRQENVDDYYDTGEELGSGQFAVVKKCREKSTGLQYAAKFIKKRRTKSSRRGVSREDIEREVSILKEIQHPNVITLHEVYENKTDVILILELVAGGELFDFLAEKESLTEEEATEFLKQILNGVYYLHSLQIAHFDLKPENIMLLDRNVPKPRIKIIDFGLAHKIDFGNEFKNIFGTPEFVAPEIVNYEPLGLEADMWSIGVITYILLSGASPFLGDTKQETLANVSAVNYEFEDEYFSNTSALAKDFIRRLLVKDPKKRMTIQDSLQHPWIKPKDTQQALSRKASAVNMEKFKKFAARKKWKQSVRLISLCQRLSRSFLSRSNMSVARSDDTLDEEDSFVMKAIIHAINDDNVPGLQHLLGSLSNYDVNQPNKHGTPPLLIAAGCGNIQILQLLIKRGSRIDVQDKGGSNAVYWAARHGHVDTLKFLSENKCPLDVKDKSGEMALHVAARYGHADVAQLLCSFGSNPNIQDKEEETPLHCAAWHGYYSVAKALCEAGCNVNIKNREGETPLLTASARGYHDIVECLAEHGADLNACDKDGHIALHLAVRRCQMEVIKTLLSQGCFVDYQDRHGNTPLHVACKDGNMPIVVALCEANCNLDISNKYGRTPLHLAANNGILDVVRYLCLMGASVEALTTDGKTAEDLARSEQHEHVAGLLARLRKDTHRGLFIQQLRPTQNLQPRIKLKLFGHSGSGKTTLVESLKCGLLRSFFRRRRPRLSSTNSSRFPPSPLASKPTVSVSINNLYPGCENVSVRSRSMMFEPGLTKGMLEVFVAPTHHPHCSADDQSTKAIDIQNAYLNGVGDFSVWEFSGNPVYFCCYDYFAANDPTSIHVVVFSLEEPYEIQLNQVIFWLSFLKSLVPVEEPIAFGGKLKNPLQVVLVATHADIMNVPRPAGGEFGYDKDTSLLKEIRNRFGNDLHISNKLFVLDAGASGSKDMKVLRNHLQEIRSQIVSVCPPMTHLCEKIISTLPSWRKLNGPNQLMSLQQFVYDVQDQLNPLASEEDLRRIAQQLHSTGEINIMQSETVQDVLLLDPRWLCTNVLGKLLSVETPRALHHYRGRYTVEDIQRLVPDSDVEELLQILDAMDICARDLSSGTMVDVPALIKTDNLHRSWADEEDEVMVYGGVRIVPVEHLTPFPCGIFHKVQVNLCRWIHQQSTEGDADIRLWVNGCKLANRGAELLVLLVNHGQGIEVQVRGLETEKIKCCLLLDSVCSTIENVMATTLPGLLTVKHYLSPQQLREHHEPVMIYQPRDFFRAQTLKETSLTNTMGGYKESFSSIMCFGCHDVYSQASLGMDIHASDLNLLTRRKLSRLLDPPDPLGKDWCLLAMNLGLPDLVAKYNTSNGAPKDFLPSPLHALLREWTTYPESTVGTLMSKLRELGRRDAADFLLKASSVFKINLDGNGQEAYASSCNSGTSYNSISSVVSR

Take `CCCCc1cc(-c2c[nH]c3ncc(-c4cnn(C5CCNCC5)c4)cc23)nc(N)n1`: the Ratio in data set [1] stood at 37. Besides, the Ratio IC50 in the data set filed under Homo sapiens came to 65.

Compound `CCc1cc(-c2c[nH]c3ncc(-c4cnn(C5CCNCC5)c4)cc23)nc(N)n1` registered an inhibition in data set [2] of 80%.

Turning to `Nc1nccc(-c2c[nH]c3ncccc23)n1` [MERIOLIN 1], the Activity is -49% in data set [3]; -36% in data set [4]; -18% in data set [5]; -23% in [6]; -78% in [7]; -13% in [8]. In addition, the Activity in data set [9] was -4%; in [10], -31%; in data set [11] it was -5%; in data set [12], -13%; in data set [13] it was -23%; in data set [14] it was -57%. The Activity in data set [16] was 1%; in [17], -4%; in data set [18] it was 1%; in data set [19] it was -33%; in data set [20], -28%; in [21], -9%. The Activity in data set [22] was -10%; in data set [23], 15%; in data set [24], -83%. Besides, the IC50 in [15] worked out at 5.9 µM.

`CCCCc1cc(-c2c[nH]c3ncccc23)nc(N)n1` yielded a solubility in data set [25] of over 1000 µg/mL.
